Data published in ChEMBL document CHEMBL1201862, “PubChem BioAssay data set” (2004).
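Method: 48-hour compound exposure of cells in 96-well plates, five concentrations, linear interpolation of endpoints. GI50: concentration for 50% inhibition of growth.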 Active and inactive are the calls of the source. Rule as the data show it: active = GI50 up to about 1.1 µM and inactive = higher.

Key:
Test in all cases: NCI anticancer screen, dose series, 48 h
XF498 = system: XF498
NCI-H460 = system: NCI-H460
SK-MEL-5 = system: SK-MEL-5
UO-31 = system: UO-31
SF-295 = system: SF-295
HOP-62 = system: HOP-62
CCRF-CEM = system: CCRF-CEM
SR = system: SR
HL-60 = system: HL-60
TK-10 = system: TK-10
HCC 2998 = system: HCC 2998
UACC-257 = system: UACC-257
KM12 = system: KM12
COLO 205 = system: COLO 205
HCT-15 = system: HCT-15
BT-549 = system: BT-549
Hs-578T = system: Hs-578T
MDA-N = system: MDA-N
PC-3 = system: PC-3
MDA-MB-231 = system: MDA-MB-231

Row | SMILES | GI50 (XF498) | GI50 (NCI-H460) | GI50 (SK-MEL-5) | GI50 (UO-31) | GI50 (SF-295) | GI50 (HOP-62) | GI50 (CCRF-CEM) | GI50 (SR) | GI50 (HL-60) | GI50 (TK-10) | GI50 (HCC 2998) | GI50 (UACC-257) | GI50 (KM12) | GI50 (COLO 205) | GI50 (HCT-15) | GI50 (BT-549) | GI50 (Hs-578T) | GI50 (MDA-N) | GI50 (PC-3) | GI50 (MDA-MB-231)
1 | CCCC[C@H](CCc1ccccc1)N(C(=O)OC)N1CCC[C@H]1COC | 14 µM (inactive) | 17.1 µM (inactive) | 18.3 µM (inactive) | 16.7 µM (inactive) | 18.7 µM (inactive) | 23 µM (inactive) | 15.5 µM (inactive) | 24.3 µM (inactive) | 46.7 µM (inactive) | 26.4 µM (inactive) | 14.6 µM (inactive) | 18 µM (inactive) | 18.8 µM (inactive) | 16.3 µM (inactive) | – | – | – | – | – | –
2 | N#C/C(=C\c1c(Cl)cccc1Cl)c1ccccc1 | 8.13 µM (inactive) | 4.69 µM (inactive) | 5.51 µM (inactive) | 17.7 µM (inactive) | 4.43 µM (inactive) | 3.83 µM (inactive) | 2.88 µM (inactive) | 2.63 µM (inactive) | 3.6 µM (inactive) | 15.8 µM (inactive) | > 39.2 µM (inactive) | 8.65 µM (inactive) | 4.86 µM (inactive) | 2.4 µM (inactive) | 4.16 µM | – | – | – | – | –
3 | O=C1C=CC(=O)C2=C1[C@@H](O)C1CC=CC3C(=O)O[C@@H]2C31 (some centres undefined) | 22.1 µM (inactive) | > 55.8 µM (inactive) | 20.6 µM (inactive) | 43.1 µM (inactive) | 39.5 µM (inactive) | > 100 µM (inactive) | 8.2 µM (inactive) | 4.65 µM (inactive) | 18.2 µM (inactive) | 28.2 µM (inactive) | 18.5 µM (inactive) | 21.8 µM (inactive) | 19.8 µM (inactive) | 20.3 µM (inactive) | 19.2 µM | – | – | – | – | –
4 | Nc1cc2[nH]cnc2c(=O)[nH]1 [DEZAGUANINE] | 5.42 µM (inactive) | 10.4 µM (inactive) | 63.7 µM (inactive) | 32.3 µM (inactive) | > 219 µM (inactive) | 18.3 µM (inactive) | 7.93 µM (inactive) | 9.1 µM (inactive) | 6.21 µM (inactive) | 13.9 µM (inactive) | 82.8 µM (inactive) | 109 µM (inactive) | 51.6 µM (inactive) | 21.9 µM (inactive) | 19.3 µM | > 123 µM (inactive) | > 196 µM (inactive) | 15.5 µM (inactive) | 9.29 µM (inactive) | 49.9 µM (inactive)
5 | CCOC(C[C@H](O[Si](C)(C)C(C)(C)C)[C@H]1COC(=S)S1)OCC | 27.2 µM (inactive) | 53.6 µM (inactive) | 48.1 µM (inactive) | 35 µM (inactive) | 37.7 µM (inactive) | 43.6 µM (inactive) | 34.9 µM (inactive) | 41.7 µM (inactive) | 29 µM (inactive) | > 100 µM (inactive) | > 100 µM (inactive) | 35 µM (inactive) | 50.7 µM (inactive) | 66.1 µM (inactive) | 55.1 µM | – | – | – | – | –
